Measured values: patent US11999727B2 (Tango Therapeutics, Inc., priority 2020, dated 2024)

Columns and labels:
[1] = test system: HAP1 MTAP-deleted cell line; experiment: SDMA in-cell western assay, HAP1 MTAP-deleted; format: cell-based; settings: for IC50: Homo sapiens, HAP1, SDMA in-cell western, HAP1 MTAP-deleted, read-out: HAP1 MTAP deleted IC50; for MTAP intact/deleted ratio: IC50 ratio HAP1 MTAP-intact vs HAP1 MTAP-deleted, SDMA in-cell western
In short: (§1)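 Compounds were tested in HAP1 cells differing only in MTAP status (endogenous expression versus null). Cellular SDMA levels were then measured by in-cell western, giving an IC50 in each background.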

PRMT5 [2] = biological target: T1, PRMT5 (Homo sapiens, UniProt O14744); experiment: PRMT5 biochemical IC50 assay with SAM as cofactor; settings: PRMT5, SAM as cofactor; read-out: SAM IC50
T1 construct: purchased Viva (custom protein)
T1 sequence (O14744 whole entry): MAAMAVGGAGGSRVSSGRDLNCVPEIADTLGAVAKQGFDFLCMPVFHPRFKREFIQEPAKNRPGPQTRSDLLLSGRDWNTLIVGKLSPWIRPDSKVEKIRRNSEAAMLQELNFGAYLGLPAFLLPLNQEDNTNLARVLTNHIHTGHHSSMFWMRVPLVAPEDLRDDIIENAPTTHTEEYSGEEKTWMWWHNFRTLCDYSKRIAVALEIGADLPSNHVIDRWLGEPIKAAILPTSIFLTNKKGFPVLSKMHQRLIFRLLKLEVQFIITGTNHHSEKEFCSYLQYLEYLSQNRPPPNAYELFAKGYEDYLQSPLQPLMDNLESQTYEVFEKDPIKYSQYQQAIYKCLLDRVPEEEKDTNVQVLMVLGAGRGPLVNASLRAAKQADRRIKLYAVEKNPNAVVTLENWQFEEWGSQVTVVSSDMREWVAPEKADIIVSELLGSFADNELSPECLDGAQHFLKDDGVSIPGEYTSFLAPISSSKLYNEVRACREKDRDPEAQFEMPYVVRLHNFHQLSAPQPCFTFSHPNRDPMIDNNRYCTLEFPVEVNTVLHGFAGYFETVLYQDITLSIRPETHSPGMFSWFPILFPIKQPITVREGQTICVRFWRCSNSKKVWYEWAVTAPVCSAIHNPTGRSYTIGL
T1 sequence (Q9BQA1 whole entry partner): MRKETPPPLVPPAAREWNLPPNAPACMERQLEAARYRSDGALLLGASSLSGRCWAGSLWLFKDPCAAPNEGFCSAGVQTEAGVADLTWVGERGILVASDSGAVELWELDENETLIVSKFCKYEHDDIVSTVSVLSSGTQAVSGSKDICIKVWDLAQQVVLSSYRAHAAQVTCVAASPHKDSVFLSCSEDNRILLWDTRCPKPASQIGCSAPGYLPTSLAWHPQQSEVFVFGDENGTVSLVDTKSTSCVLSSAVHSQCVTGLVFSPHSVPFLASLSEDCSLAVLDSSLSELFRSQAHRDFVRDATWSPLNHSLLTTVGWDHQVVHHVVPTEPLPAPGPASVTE

[3] = test system: HAP1 MTAP-deleted cell line; experiment: Viability assay, MTAP-deleted cell line; format: cell-based; settings: Homo sapiens, HAP1, viability assay, MTAP-deleted cell line; read-out: HAP1 MTAP deleted viability
Source text: Table 1 additionally indicates IC50 values in a viability assay for the MTAP-deleted cell line (column 10), indicating the effect of treatment with compound on cell survival.

PRMT5 [4] = biological target: T1, PRMT5; experiment: PRMT5 biochemical IC50 assay with no cofactor; settings: PRMT5, no cofactor; read-out: No Cofactor/rel IC50
Source text: Table 1 indicates IC50 values (μM) against PRMT5 for exemplary compounds in the presence of SAM as cofactor, with no cofactor, and with MTA as cofactor, respectively (columns 4-6). […] Ki values can be calculated from the IC50 values as described in the Examples section. As detailed in the Examples section, for the assay performed in the presence of SAM, IC50=Ki×1.5 (Ki=IC50/1.5).

PRMT5 [5] = biological target: T1, PRMT5; experiment: PRMT5 biochemical IC50 assay with MTA as cofactor; settings: PRMT5, MTA as cofactor; read-out: MTA IC50
[6] = test system: HAP1 MTAP-intact cell line; experiment: SDMA in-cell western assay, HAP1 MTAP-intact; format: cell-based; settings: Homo sapiens, HAP1, SDMA in-cell western, HAP1 MTAP-intact; read-out: MTAP HAP1 intact IC50
In short: as §1

Row | Compound | IC50 [1] [nM] | MTAP intact/deleted ratio [1] | IC50 (PRMT5 [2]) [nM] | IC50 [3] [nM] | IC50 (PRMT5 [4]) [nM] | IC50 (PRMT5 [5]) [nM] | IC50 [6] [nM]
1 | CCc1cc(NC(=O)C(=O)N2C[C@@H](C)CC[C@@H]2c2ccc3sc(C4CC5CCC(C4)N5C)nc3c2)cnc1N (stereo partly drawn) [Compound 1187, N-(6-amino-5-ethyl-3-pyridyl)-2-[(2R,5S)-5-methyl-2-[2-(8-methyl-8-azabicyclo[3.2.1]octan-3-yl)-1,3-benzothiazol-5-yl]-1-piperidyl]-2-oxo-acetamide] | < 100 | A (an IC50 ratio greater than or equal to 10 fold) | < 50 | < 1000 | < 50 | < 50 | < 100
2 | CCc1cc(NC(=O)C(=O)N2C[C@@H](C)CC[C@@H]2c2ccc3sc(-c4nccn4C)nc3c2)cnc1N [Compound 1192, N-(6-amino-5-ethylpyridin-3-yl)-2-((2R,5S)-5-methyl-2-(2-(1-methyl-1H-imidazol-2-yl)benzo[d]thiazol-5-yl)piperidin-1-yl)-2-oxoacetamide] | < 100 | A (an IC50 ratio greater than or equal to 10 fold) | 50 to 500 | < 1000 | < 50 | < 50 | 100 to 1000
3 | CCc1cc(NC(=O)C(=O)N2C[C@@H](C)CC[C@@H]2c2ccc3sc(-c4ccncc4)nc3c2)cnc1N [Compound 1194, N-(6-amino-5-ethylpyridin-3-yl)-2-((2R,5S)-5-methyl-2-(2-(pyridin-4-yl)benzo[d]thiazol-5-yl)piperidin-1-yl)-2-oxoacetamide] | < 100 | A (an IC50 ratio greater than or equal to 10 fold) | 50 to 500 | < 1000 | < 50 | < 50 | 100 to 1000
4 | CCc1cc(NC(=O)C(=O)N2C[C@@H](C)CC[C@@H]2c2ccc3sc(CCN(C)C4COC4)nc3c2)cnc1N [Compound 1195, N-(6-amino-5-ethylpyridin-3-yl)-2-((2R,5S)-5-methyl-2-(2-(2-(methyl(oxetan-3-yl)amino)ethyl)benzo[d]thiazol-5-yl)piperidin-1-yl)-2-oxoacetamide] | < 100 | A (an IC50 ratio greater than or equal to 10 fold) | 50 to 500 | < 1000 | < 50 | < 50 | < 100
5 | CCc1cc(NC(=O)C(=O)N2C[C@@H](C)CC[C@@H]2c2ccc3sc(C[C@@H](C)N(C)C)nc3c2)cnc1N [Compound 1198, N-(6-amino-5-ethylpyridin-3-yl)-2-((2R,5S)-2-(2-((R)-2-(dimethylamino)propyl)benzo[d]thiazol-5-yl)-5-methylpiperidin-1-yl)-2-oxoacetamide] | < 100 | A (an IC50 ratio greater than or equal to 10 fold) | 50 to 500 | < 1000 | < 50 | < 50 | < 100
6 | CCc1cc(NC(=O)C(=O)N2C[C@@H](C)CC[C@@H]2c2ccc3cn(C)nc3c2)cnc1N [Compound 1199, N-(6-amino-5-ethyl-3-pyridyl)-2-[(5S)-5-methyl-2-(2-methylindazol-6-yl)-1-piperidyl]-2-oxo-acetamide] | < 100 | A (an IC50 ratio greater than or equal to 10 fold) | 50 to 500 | < 1000 | < 50 | < 50 | 100 to 1000
7 | CCc1cc(NC(=O)C(=O)N2C[C@@H](C)CC[C@@H]2c2ccc3sc(-c4cccnc4)nc3c2)cnc1N [Compound 1200, N-(6-amino-5-ethylpyridin-3-yl)-2-((2R,5S)-5-methyl-2-(2-(pyridin-3-yl)benzo[d]thiazol-5-yl)piperidin-1-yl)-2-oxoacetamide] | < 100 | A (an IC50 ratio greater than or equal to 10 fold) | 50 to 500 | < 1000 | < 50 | < 50 | 100 to 1000
8 | CCc1cc(NC(=O)C(=O)N2C[C@@H](C)CC[C@@H]2c2ccc3sc([C@H]4CN(C)CCO4)nc3c2)cnc1N [Compound 1202, N-(6-amino-5-ethyl-3-pyridyl)-2-oxo-2-[(2R,5S)-5-methyl-2-[2-[(2R)-4-methylmorpholin-2-yl]-1,3-benzothiazol-5-yl]-1-piperidyl]acetamide] | < 100 | A (an IC50 ratio greater than or equal to 10 fold) | 50 to 500 | < 1000 | < 50 | < 50 | < 100
9 | COc1cc(NC(=O)C(=O)N2C[C@@H](C)CC[C@@H]2c2ccc3sc(C4CCN(C)CC4)nc3c2)cnc1N [Compound 1203, N-(6-amino-5-methoxypyridin-3-yl)-2-((2R,5)-5-methyl-2-(2-(1-methylpiperidin-4-yl)benzo[d]thiazol-5-yl)piperidin-1-yl)-2-oxoacetamide] | < 100 | A (an IC50 ratio greater than or equal to 10 fold) | < 50 | < 1000 | < 50 | < 50 | < 100
10 | CCc1cc(NC(=O)C(=O)N2C[C@@H](C)CC[C@@H]2c2ccc(OCC3CCN(C)CC3)cc2)cnc1N [Compound 1206] | < 100 | A (an IC50 ratio greater than or equal to 10 fold) | 50 to 500 | < 1000 | < 50 | < 50 | 100 to 1000
11 | CCc1cc(NC(=O)C(=O)N2C[C@@H](C)CC[C@@H]2c2ccc3sc(C45CC(CN(C)C4)C5)nc3c2)cnc1N [Compound 1212, N-(6-amino-5-ethylpyridin-3-yl)-2-((2R,5S)-5-methyl-2-(2-(3-methyl-3-azabicyclo[3.1.1]heptan-1-yl)benzo[d]thiazol-5-yl)piperidin-1-yl)-2-oxoacetamide] | < 100 | B (an IC50 ratio greater than or equal to 3 fold but lower than 10 fold) | < 50 | < 1000 | < 50 | < 50 | < 100
12 | Cc1cc(NC(=O)C(=O)N2C[C@@H](C)CC[C@@H]2c2ccc3sc(-c4cn(C)cn4)nc3c2)cnc1N [Compound 1214, N-(6-amino-5-methylpyridin-3-yl)-2-((2R,5S)-5-methyl-2-(2-(1-methyl-1H-imidazol-4-yl)benzo[d]thiazol-5-yl)piperidin-1-yl)-2-oxoacetamide] | < 100 | A (an IC50 ratio greater than or equal to 10 fold) | 50 to 500 | < 1000 | < 50 | < 50 | 100 to 1000
13 | Cc1cc(NC(=O)C(=O)N2C[C@@H](C)CC[C@@H]2c2ccc3sc([C@@H]4CCN(C)C(C)(C)C4)nc3c2)cnc1C [Compound 1215, N-(5,6-dimethyl-3-pyridyl)-2-oxo-2-[(2R,5S)-5-methyl-2-[2-[(4R)-1,2,2-trimethyl-4-piperidyl]-1,3-benzothiazol-5-yl]-1-piperidyl]acetamide] | < 100 | A (an IC50 ratio greater than or equal to 10 fold) | < 50 | < 1000 | < 50 | < 50 | 100 to 1000
